Measurements reported in patent US11649255B2, “Indazoles as hematopoietic progenitor kinase 1 (HPK1) inhibitors and methods using same” (1st Biotherapeutics, Inc., priority 2020, dated 2023).
Structures can show the parent of a compound that is named as a salt.

Molecular target: recombinant human HPK1 (Homo sapiens (Human), UniProt Q92918)
Assay: HPK1 kinase assay (ADP-Glo)
Assay type: biochemical
Details: 25 μM ATP, MBP substrate
Summary of the method: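 Activity was read as ADP formed, detected by ADP-Glo luminescence after the reaction of 5 ng recombinant human HPK1 with MBP and ATP (stocks 0.5 μg/μl and 25 μM) for 40 min at 30 °C. Buffer was Tris pH 7.5 with MgCl2, BSA and DTT, with compound in 0.5% DMSO. IC50 came from inhibition curves.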

Sequence of recombinant human HPK1 (Q92918 whole entry): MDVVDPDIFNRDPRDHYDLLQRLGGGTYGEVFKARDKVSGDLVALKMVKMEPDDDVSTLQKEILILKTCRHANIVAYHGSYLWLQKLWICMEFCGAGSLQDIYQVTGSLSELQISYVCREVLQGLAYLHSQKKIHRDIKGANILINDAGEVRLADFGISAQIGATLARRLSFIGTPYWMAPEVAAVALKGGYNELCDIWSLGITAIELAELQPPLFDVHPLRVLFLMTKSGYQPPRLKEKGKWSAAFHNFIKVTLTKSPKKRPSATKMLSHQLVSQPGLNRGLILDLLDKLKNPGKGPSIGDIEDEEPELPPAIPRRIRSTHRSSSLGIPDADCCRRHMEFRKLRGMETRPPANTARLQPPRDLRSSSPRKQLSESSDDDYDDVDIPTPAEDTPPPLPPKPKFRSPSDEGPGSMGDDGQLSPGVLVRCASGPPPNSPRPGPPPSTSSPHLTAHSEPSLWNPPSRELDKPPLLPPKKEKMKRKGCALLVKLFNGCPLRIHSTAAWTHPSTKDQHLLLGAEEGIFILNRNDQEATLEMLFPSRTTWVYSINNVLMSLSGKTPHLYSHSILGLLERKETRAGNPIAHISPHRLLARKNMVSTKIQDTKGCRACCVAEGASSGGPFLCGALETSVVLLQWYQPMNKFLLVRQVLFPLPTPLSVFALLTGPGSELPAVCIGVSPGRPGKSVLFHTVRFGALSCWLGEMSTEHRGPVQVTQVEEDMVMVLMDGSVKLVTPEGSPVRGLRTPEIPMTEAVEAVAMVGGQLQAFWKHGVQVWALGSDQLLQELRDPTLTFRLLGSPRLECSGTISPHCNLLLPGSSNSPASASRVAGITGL

| SMILES | IC50 |
| --- | --- |
| COCc1c(F)c(Cl)c(-c2ccc3nc(NC(=O)[C@@H]4C[C@@H]4F)cn3c2)c2cn[nH]c12 [Example 390, (1S,2S)-N-(6-(5-chloro-6-fluoro-7-(methoxymethyl)-1H-indazol-4-yl)imidazo[1,2-a]pyridin-2-yl)-2-fluorocyclopropane-1-carboxamide] | < 100 nM |
| CCOCc1c(F)c(Cl)c(-c2ccc3nc(NC(=O)[C@@H]4C[C@@H]4F)cn3c2)c2cn[nH]c12 [Example 391, (1S,2S)-N-(6-(5-chloro-7-(ethoxymethyl)-6-fluoro-1H-indazol-4-yl)imidazo[1,2-a]pyridin-2-yl)-2-fluorocyclopropane-1-carboxamide] | < 100 nM |
| O=C(Nc1cn2cc(-c3c(Cl)c(F)c(Cn4cnnn4)c4[nH]ncc34)ccc2n1)[C@@H]1C[C@@H]1F [Example 392, (1S,2S)-N-(6-(7-((1-tetrazol-1-yl)methyl)-5-chloro-6-fluoro-1H-indazol-4-yl)imidazo[1,2-a]pyridin-2-yl)-2-fluorocyclopropane-1-carboxamide] | < 100 nM |
| COC(C)(C)c1c(F)c(Cl)c(-c2ccc3nc(NC(=O)[C@@H]4C[C@@H]4F)cn3c2)c2cn[nH]c12 [Example 395, (1S,2S)-N-(6-(5-chloro-6-fluoro-7-(2-methoxypropan-2-yl)-1H-indazol-4-yl)imidazo[1,2-a]pyridin-2-yl)-2-fluorocyclopropane-1-carboxamide] | < 100 nM |
| CC(c1c(F)c(Cl)c(-c2ccc3nc(NC(=O)[C@@H]4C[C@@H]4F)cn3c2)c2cn[nH]c12)N(C)C (stereo partly drawn) [Example 396, (1S,2S)-N-(6-(5-chloro-7-(1-(dimethylamino)ethyl)-6-fluoro-1H-indazol-4-yl)imidazo[1,2-a]pyridin-2-yl)-2-fluorocyclopropane-1-carboxamide. Formaic acid salt] | < 100 nM |
| CN(C)C(=O)CNc1c(F)c(Cl)c(-c2ccc3nc(NC(=O)[C@@H]4C[C@@H]4F)cn3c2)c2cn[nH]c12 [Example 397, (1S,2S)-N-(6-(5-chloro-7-((2-(dimethylamino)-2-oxoethyl)amino)-6-fluoro-1H-indazol-4-yl)imidazo[1,2-a]pyridin-2-yl)-2-fluorocyclopropane-1-carboxamide] | < 100 nM |
| CC(c1c(F)c(Cl)c(-c2ccc3nc(NC(=O)[C@@H]4C[C@@H]4F)cn3c2)c2cn[nH]c12)n1cnnn1 (stereo partly drawn) [Example 398, (1S,2S)-N-(6-(7-(1-(1H-tetrazol-1-yl)ethyl)-5-chloro-6-fluoro-1H-indazol-4-yl)imidazo[1,2-a]pyridin-2-yl)-2-fluorocyclopropane-1-carboxamide] | < 100 nM |
| CC(N)c1c(F)c(Cl)c(-c2ccc3nc(NC(=O)[C@@H]4C[C@@H]4F)cn3c2)c2cn[nH]c12 (stereo partly drawn) [Example 399, (1S,2S)-N-(6-(7-(1-aminoethyl)-5-chloro-6-fluoro-1H-indazol-4-yl)imidazo[1,2-a]pyridin-2-yl)-2-fluorocyclopropane-1-carboxamide] | < 100 nM |
| CN(C)C(=O)c1ccn(-c2c(F)c(Cl)c(-c3ccc4nc(NC(=O)[C@@H]5C[C@@H]5F)cn4c3)c3cn[nH]c23)c1 [Example 400, 1-(5-chloro-6-fluoro-4-(2-((1S,2S)-2-fluorocyclopropane-1-carboxamido)imidazo[1,2-a]pyridin-6-yl)-1H-indazol-7-yl)-N,N-dimethyl-1H-pyrrole-3-carboxamide] | < 100 nM |
| O=C(Nc1cn2cc(-c3c(Cl)c(F)c(OC4CC4)c4[nH]ncc34)ccc2n1)[C@@H]1C[C@@H]1F [Example 401, (1S,2S)-N-(6-(5-chloro-7-cyclopropoxy-6-fluoro-1H-indazol-4-yl)imidazo[1,2-a]pyridin-2-yl)-2-fluorocyclopropane-1-carboxamide] | < 100 nM |
| CNC(C)c1c(F)c(Cl)c(-c2ccc3nc(NC(=O)[C@@H]4C[C@@H]4F)cn3c2)c2cn[nH]c12 (stereo partly drawn) [Example 402, (1S,2S)-N-(6-(5-chloro-6-fluoro-7-(1-(methylamino)ethyl)-1H-indazol-4-yl)imidazo[1,2-a]pyridin-2-yl)-2-fluorocyclopropane-1-carboxamide] | 101 to 500 nM |
| CC(C)Nc1c(F)c(Cl)c(-c2cc(N)c3nc(NC(=O)[C@@H]4C[C@@H]4F)cn3c2)c2cn[nH]c12 [Example 403, (1S,2S)-N-(8-amino-6-(5-chloro-6-fluoro-7-(isopropylamino)-1H-indazol-4-yl)imidazo[1,2-a]pyridin-2-yl)-2-fluorocyclopropane-1-carboxamide. 1 formic acid] | > 1000 nM |
| CC(C)Oc1c(F)c(Cl)c(-c2ccc3nc(NC(=O)[C@@H]4C[C@@H]4F)cn3c2)c2cn[nH]c12 [Example 404, (1S,2S)-N-(6-(5-chloro-6-fluoro-7-isopropoxy-1H-indazol-4-yl)imidazo[1,2-a]pyridin-2-yl)-2-fluorocyclopropane-1-carboxamide] | < 100 nM |
| CC(C)c1c(F)c(Cl)c(-c2ccc3nc(NC(=O)[C@@H]4C[C@@H]4F)cn3c2)c2cn[nH]c12 [Example 405, (1S,2S)-N-(6-(5-chloro-6-fluoro-7-isopropyl-1H-indazol-4-yl)imidazo[1,2-a]pyridin-2-yl)-2-fluorocyclopropane-1-carboxamide] | < 100 nM |
| O=C(Nc1cn2cc(-c3c(Cl)c(F)c(C4CCCC4)c4[nH]ncc34)ccc2n1)[C@@H]1C[C@@H]1F [Example 406, (1S,2S)-N-(6-(5-chloro-7-cyclopentyl-6-fluoro-1H-indazol-4-yl)imidazo[1,2-a]pyridin-2-yl)-2-fluorocyclopropane-1-carboxamide] | < 100 nM |
| C[C@H](c1c(F)c(Cl)c(-c2ccc3nc(NC(=O)[C@@H]4C[C@@H]4F)cn3c2)c2cn[nH]c12)n1ncnn1 [Example 407, (1S,2S)-N-(6-(7-((R)-1-(2H-tetrazol-2-yl)ethyl)-5-chloro-6-fluoro-1H-indazol-4-yl)imidazo[1,2-a]pyridin-2-yl)-2-fluorocyclopropane-1-carboxamide] | < 100 nM |
| C[C@@H](c1c(F)c(Cl)c(-c2ccc3nc(NC(=O)[C@@H]4C[C@@H]4F)cn3c2)c2cn[nH]c12)n1ncnn1 [Example 408, (1S,2S)-N-(6-(7-((S)-1-(2H-tetrazol-2-yl)ethyl)-5-chloro-6-fluoro-1H-indazol-4-yl)imidazo[1,2-a]pyridin-2-yl)-2-fluorocyclopropane-1-carboxamide] | < 100 nM |
| O=C(Nc1cn2cc(-c3c(Cl)c(F)c(C4CCCC4O)c4[nH]ncc34)ccc2n1)[C@@H]1C[C@@H]1F (stereo partly drawn) [Example 410, (1S,2S)-N-(6-(5-chloro-6-fluoro-7-(2-hydroxycyclopentyl)-1H-indazol-4-yl)imidazo[1,2-a]pyridin-2-yl)-2-fluorocyclopropane-1-carboxamide] | < 100 nM |
| CC(=S)Nc1c(F)c(Cl)c(-c2ccc3nc(NC(=O)[C@@H]4C[C@@H]4F)cn3c2)c2cn[nH]c12 [Example 411, (1S,2S)-N-(6-(5-chloro-7-ethanethioamido-6-fluoro-1H-indazol-4-yl)imidazo[1,2-a]pyridin-2-yl)-2-fluorocyclopropane-1-carboxamide] | < 100 nM |
| CC(=O)N(C)C(C)c1c(F)c(Cl)c(-c2ccc3nc(NC(=O)[C@@H]4C[C@@H]4F)cn3c2)c2cn[nH]c12 (stereo partly drawn) [Example 412, (1S,2S)-N-(6-(5-chloro-6-fluoro-7-(1-(N-methylacetamido)ethyl)-1H-indazol-4-yl)imidazo[1,2-a]pyridin-2-yl)-2-fluorocyclopropane-1-carboxamide] | < 100 nM |
| C[C@H](c1c(F)c(Cl)c(-c2ccc3nc(NC(=O)[C@@H]4C[C@@H]4F)cn3c2)c2cn[nH]c12)n1cnnn1 [Example 413] | < 100 nM |
| C[C@@H](c1c(F)c(Cl)c(-c2ccc3nc(NC(=O)[C@@H]4C[C@@H]4F)cn3c2)c2cn[nH]c12)n1cnnn1 [Example 414, (1S,2S)-N-(6-(7-((S)-1-(1H-tetrazol-1-yl)ethyl)-5-chloro-6-fluoro-1H-indazol-4-yl)imidazo[1,2-a]pyridin-2-yl)-2-fluorocyclopropane-1-carboxamide] | < 100 nM |
| CC(=O)NC(C)c1c(F)c(Cl)c(-c2ccc3nc(NC(=O)[C@@H]4C[C@@H]4F)cn3c2)c2cn[nH]c12 (stereo partly drawn) [Example 417, (1S,2S)-N-(6-(7-(1-acetamidoethyl)-5-chloro-6-fluoro-1H-indazol-4-yl)imidazo[1,2-a]pyridin-2-yl)-2-fluorocyclopropane-1-carboxamide] | < 100 nM |
| CC(Nc1c(F)c(Cl)c(-c2ccc3nc(NC(=O)[C@@H]4C[C@@H]4F)cn3c2)c2cn[nH]c12)C1CC1 (stereo partly drawn) [Example 420, (1S,2S)-N-(6-(5-chloro-7-((1-cyclopropylethyl)amino)-6-fluoro-1H-indazol-4-yl)imidazo[1,2-a]pyridin-2-yl)-2-fluorocyclopropane-1-carboxamide] | < 100 nM |
| O=C(Nc1cn2cc(-c3c(Cl)c(F)c(NCC4CC4)c4[nH]ncc34)ccc2n1)[C@@H]1C[C@@H]1F [Example 421, (1S,2S)-N-(6-(5-chloro-7-((cyclopropylmethyl)amino)-6-fluoro-1H-indazol-4-yl)imidazo[1,2-a]pyridin-2-yl)-2-fluorocyclopropane-1-carboxamide] | < 100 nM |
| COC[C@H](C)c1c(F)c(Cl)c(-c2ccc3nc(NC(=O)[C@@H]4C[C@@H]4F)cn3c2)c2cn[nH]c12 [Example 422, (1S,2S)-N-(6-(5-chloro-6-fluoro-7-((R)-1-methoxypropan-2-yl)-1H-indazol-4-yl)imidazo[1,2-a]pyridin-2-yl)-2-fluorocyclopropane-1-carboxamide] | < 100 nM |
| COC[C@@H](C)c1c(F)c(Cl)c(-c2ccc3nc(NC(=O)[C@@H]4C[C@@H]4F)cn3c2)c2cn[nH]c12 [Example 423, (1S,2S)-N-(6-(5-chloro-6-fluoro-7-((S)-1-methoxypropan-2-yl)-1H-indazol-4-yl)imidazo[1,2-a]pyridin-2-yl)-2-fluorocyclopropane-1-carboxamide] | < 100 nM |
| CCC(=O)NC(C)c1c(F)c(Cl)c(-c2ccc3nc(NC(=O)[C@@H]4C[C@@H]4F)cn3c2)c2cn[nH]c12 (stereo partly drawn) [Example 424, (1S,2S)-N-(6-(5-chloro-6-fluoro-7-(1-propionamidoethyl)-1H-indazol-4-yl)imidazo[1,2-a]pyridin-2-yl)-2-fluorocyclopropane-1-carboxamide] | < 100 nM |
